Consider eleven compounds from patent US9376423B2, “PKC-epsilon inhibitors” (The Regents of the University of California, priority 2010, dated 2016).

Where two headings read alike, the source gives them in different places.

Holding throughout (format): biochemical
Assay [1] addresses T1, PKCε (Homo sapiens, UniProt Q02156).
T1 sequence (Q02156 1-737): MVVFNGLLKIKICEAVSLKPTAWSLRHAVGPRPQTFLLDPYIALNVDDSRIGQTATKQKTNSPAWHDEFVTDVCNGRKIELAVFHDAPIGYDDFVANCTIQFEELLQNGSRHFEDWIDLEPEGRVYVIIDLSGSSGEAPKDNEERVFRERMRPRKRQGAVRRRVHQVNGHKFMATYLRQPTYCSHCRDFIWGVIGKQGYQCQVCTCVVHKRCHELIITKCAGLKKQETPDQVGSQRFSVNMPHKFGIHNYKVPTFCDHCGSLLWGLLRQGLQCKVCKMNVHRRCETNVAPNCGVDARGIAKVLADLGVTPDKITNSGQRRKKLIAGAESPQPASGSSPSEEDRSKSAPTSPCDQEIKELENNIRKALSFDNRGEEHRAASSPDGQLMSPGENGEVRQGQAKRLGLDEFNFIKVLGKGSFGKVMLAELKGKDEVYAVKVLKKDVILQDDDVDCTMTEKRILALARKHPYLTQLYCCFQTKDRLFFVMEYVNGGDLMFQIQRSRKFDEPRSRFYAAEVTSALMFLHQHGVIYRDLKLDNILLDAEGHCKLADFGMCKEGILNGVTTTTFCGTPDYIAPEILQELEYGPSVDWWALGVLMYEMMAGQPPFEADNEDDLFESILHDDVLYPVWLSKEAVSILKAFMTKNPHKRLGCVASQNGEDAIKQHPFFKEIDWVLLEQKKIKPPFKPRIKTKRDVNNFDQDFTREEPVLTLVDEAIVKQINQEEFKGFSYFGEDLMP
Kind of assay: FRET based LANCE Ultra kinase assay. Here is the method:
Certain compounds of this invention were tested in the captioned assay.

The target in the next assay is T2, PKCγ (Homo sapiens, UniProt P05129).
T2 construct: purchased Invitrogen (Carlsbad, Calif., USA)
The experiment in a line: Inhibition of conventional PKCγ (Example 4). The following applies: 10 μM inhibitor; n = 3; read-out: Percent inhibition of PKC activity, PKCγ. The source says: (§1) Compound selectivity for inhibiting PKCε and not other PKC isozymes or ROCK1 can be determined according to the following assay. Specificity counter screens can be performed against one member of each subclass of PKCs (conventional, novel and atypical).
(§2) For example, to measure inhibition of conventional PKCγ, novel PKCδ, and atypical PKCζ, the same kinase assay disclosed above for PKCε can be used with recombinant human PKCγ, PKCδ, or PKCζ purchased from Invitrogen (Carlsbad, Calif., USA) in place of PKCε, with 0.4 mM CaCl2 assay buffer for PKCγ.

For another assay, the target named is T3, PKCδ (Homo sapiens, UniProt Q05655).
T3 construct: purchased Invitrogen (Carlsbad, Calif., USA)
T3 sequence (Q05655 whole entry): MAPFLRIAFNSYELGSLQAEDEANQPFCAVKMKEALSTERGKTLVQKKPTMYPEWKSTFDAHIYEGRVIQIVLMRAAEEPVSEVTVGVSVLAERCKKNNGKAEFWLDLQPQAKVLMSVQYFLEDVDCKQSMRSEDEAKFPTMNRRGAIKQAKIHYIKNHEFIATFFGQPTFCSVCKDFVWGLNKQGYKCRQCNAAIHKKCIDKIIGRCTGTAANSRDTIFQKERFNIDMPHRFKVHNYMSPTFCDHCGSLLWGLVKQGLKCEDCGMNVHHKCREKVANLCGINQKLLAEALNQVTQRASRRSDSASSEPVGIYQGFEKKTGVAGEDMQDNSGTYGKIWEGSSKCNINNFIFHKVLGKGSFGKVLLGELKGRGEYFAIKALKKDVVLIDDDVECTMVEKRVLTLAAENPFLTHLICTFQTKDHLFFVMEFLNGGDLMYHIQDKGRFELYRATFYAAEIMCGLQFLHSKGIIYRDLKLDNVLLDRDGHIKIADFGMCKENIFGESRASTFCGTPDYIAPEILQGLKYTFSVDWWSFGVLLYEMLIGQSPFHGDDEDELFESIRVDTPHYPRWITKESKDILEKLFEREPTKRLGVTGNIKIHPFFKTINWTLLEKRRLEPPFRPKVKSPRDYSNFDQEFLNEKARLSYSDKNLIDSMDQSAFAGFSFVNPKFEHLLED
Kind of assay: Inhibition of novel PKCδ (Example 4). The following applies: n = 3; for inhibition at 10 µM: 10 μM inhibitor, read-out: Percent inhibition of PKC activity, PKCδ; for IC50: ± SE, read-out: Log IC50 (M) PKCδ (converted).
Text: as §1, §2

The next assay concerns the target T4, PKCθ (Homo sapiens, UniProt Q04759).
T4 construct: purchased Invitrogen P2996
The experiment in a line: Inhibition of novel PKCθ (Example 4). As to conditions: n = 3; for inhibition at 10 µM: 10 μM inhibitor, read-out: Percent inhibition of PKC activity, PKCθ; for IC50: ± SE, read-out: Log IC50 (M) PKCθ (converted). The source says:
Inhibition of PKC theta activity can be measured using the same primary phosphotransferase assay for PKCε except one substitutes recombinant human PKC theta purchased from Invitrogen for PKCε. PKC theta can also be assayed with a fluorescence polarization (FP) assay using the commercially available Protein Kinase C Assay Kit, Red, from Invitrogen (Product ID No P2941), essentially in accordance with the protocol supplied by the manufacturer. The substrate used is […] (MW 1561), which can be obtained from Invitrogen (Product ID No P2760). The isozyme PKC theta can be obtained from Invitrogen (Product ID No P2996).

A further assay concerns the target T5, PKCζ (Homo sapiens, UniProt Q05513).
T5 construct: purchased Invitrogen (Carlsbad, Calif., USA)
T5 sequence (Q05513 1-592): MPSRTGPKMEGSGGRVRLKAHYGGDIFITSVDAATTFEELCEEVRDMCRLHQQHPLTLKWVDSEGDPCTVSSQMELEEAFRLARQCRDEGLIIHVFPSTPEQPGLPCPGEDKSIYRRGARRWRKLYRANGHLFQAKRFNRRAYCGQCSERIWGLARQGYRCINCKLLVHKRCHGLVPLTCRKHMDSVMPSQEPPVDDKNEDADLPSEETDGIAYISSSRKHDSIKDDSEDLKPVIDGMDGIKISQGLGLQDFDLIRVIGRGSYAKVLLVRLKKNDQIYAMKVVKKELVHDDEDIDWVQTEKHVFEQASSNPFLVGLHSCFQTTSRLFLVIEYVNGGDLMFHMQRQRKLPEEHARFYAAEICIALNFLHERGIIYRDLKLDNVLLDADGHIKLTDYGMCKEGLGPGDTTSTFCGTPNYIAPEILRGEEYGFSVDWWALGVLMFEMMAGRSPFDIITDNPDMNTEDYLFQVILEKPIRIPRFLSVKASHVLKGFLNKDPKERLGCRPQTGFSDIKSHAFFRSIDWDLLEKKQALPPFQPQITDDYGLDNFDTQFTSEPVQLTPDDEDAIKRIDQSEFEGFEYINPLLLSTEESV
The experiment in a line: Inhibition of atypical PKCζ (Example 4). As to conditions: for activity against atypical PKCζ: 10 μM; for inhibition at 10 µM: 10 μM inhibitor, n = 3, read-out: Percent inhibition of PKC activity, PKCζ.
Text: as §1, §2

In assay [2] the target is T1, PKCε. The experiment in a line: Inhibition of PKCε (Example 4). The following applies: for IC50: ± SE, read-out: Log IC50 (M) PKCε (converted).
For assay [3], the target named is T1, PKCε. Kind of assay: Primary PKCε phosphotransferase assay. More on the design: FLAG; made in house; host or cells: COS-7. Here is the method:
The assay mixture can contain 2 ng FLAG-tagged human PKCε expressed and purified from COS-7 cells in 25 μl kinase buffer containing 20 mM Tris-HCl, pH 7.4, 0.25 mM EGTA, 0.1 mg/ml BSA, 0.72% TritonX-100, 10 mM MgCl2, 0.48 μg/μl L-α-phosphatidylserine (PS) and 0.107 μg/μl sn-1,2-dioleoylglecerol (DG) (Avanti Polar Lipids, Alabaster, Ala., USA), 2 μM K(Biotin)-[…], 2.5 μM ATP and 0.05 μCi [^32γ-P]ATP. After incubation at 27° C. for 90 min, the reaction is terminated by adding 12.5 μl of 7.5 M of guanidine hydrochloride. Eight microliters of reaction mixture is spotted onto a pre-cut streptavidin-coated SAM Biotin Capture membrane. […] The membrane is then air dried at room temperature for 60 min and radioactivity remaining on the membrane can be measured by liquid scintillation counting. Specific PKCε activity can then be calculated as the difference between cpms detected in the presence and absence of lipids (PS and DG). Maximal PKCε activity (positive control) can be detected in reactions lacking an inhibitor. Complete inhibition (negative control) can be measured in the presence of the general PKC inhibitor 5 μM bisindolylmaleimide I. The normalized percent inhibition (NPI) can be calculated at each concentration of inhibitor by the formula: […]
IC50 values can be calculated from normalized dose-response curves by nonlinear regression analysis. […]

Where [4] appears, read: selection criterion for Example 4, read-out: Ki for PKCε.

T4 sequence (Q04759 whole entry): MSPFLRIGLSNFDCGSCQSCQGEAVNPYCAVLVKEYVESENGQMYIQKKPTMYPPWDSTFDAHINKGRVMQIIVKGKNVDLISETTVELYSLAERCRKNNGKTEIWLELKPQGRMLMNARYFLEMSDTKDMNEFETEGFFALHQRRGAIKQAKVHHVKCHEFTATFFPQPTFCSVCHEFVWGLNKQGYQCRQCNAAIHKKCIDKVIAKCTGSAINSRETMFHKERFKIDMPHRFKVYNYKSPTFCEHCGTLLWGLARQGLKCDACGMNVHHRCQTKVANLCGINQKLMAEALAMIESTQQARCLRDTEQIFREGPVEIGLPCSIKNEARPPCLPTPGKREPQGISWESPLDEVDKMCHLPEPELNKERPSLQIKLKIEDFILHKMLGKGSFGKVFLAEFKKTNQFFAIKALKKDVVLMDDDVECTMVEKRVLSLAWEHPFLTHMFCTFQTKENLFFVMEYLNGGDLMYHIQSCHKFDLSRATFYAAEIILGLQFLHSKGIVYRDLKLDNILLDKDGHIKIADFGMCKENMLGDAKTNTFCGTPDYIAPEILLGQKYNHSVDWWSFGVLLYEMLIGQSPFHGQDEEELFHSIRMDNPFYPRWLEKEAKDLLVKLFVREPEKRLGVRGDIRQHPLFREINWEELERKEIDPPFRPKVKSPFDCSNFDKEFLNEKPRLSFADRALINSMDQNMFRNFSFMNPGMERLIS

For `CC(C)(C(=O)NCC(N)[C@H]1CC[C@H](C(=O)Nc2ccncc2)CC1)c1cccs1` (stereo partly shown) [Compound 7], the IC50 on PKCε [1] (read-out: Log IC50 (converted)) is 280 nM.
In the case of `CC(C)(C(=O)NCC(N)[C@H]1CC[C@H](C(=O)Nc2ccncc2)CC1)c1ccc(Cl)cc1.Cl` (stereo partly shown) [Compound 9], the IC50 on PKCε [1] (read-out: Log IC50 (converted)) is 40 nM; on PKCδ, 2.69e-07 M; at PKCθ it was 2.75e-07 M; at PKCε [2] (n = 3), 3.8e-08 M. Also, the inhibition at 10 µM at PKCγ amounted to 30 ± 3.3%; on PKCδ, 98.9 ± 0.6%; on PKCθ, 99.6 ± 1.3%; on PKCζ, 8.9 ± 1.8%. Further, the Ki is 66.5 nM on PKCδ; 67 nM on PKCθ; 9.3 nM on PKCε [2] (n = 3, read-out: Ki (nM) PKCε); under 20 nM at PKCε [2] (setting [4]). Also, at PKCζ, the “activity against atypical PKCζ” value is “almost no activity”.
As to `Cl.NC(CNC(=O)C1(c2ccc(F)cc2)CCCC1)[C@H]1CC[C@H](C(=O)Nc2ccncc2)CC1` (stereo partly shown) [Compound 5], the IC50 is 42.6 nM at PKCε [1] (read-out: IC50); 42.7 nM on PKCε [1] (read-out: Log IC50 (converted)); 5.25e-07 M on PKCδ; 3.63e-07 M at PKCθ; 4.27e-08 M at PKCε [2] (n = 3). Further, the inhibition at 10 µM was found to be 17 ± 1.3% at PKCγ, 96.4 ± 1% at PKCδ, 94.4 ± 1% at PKCθ and 6.3 ± 2.1% on PKCζ. Moreover, the Ki on PKCδ was 125 nM; at PKCθ, 86.9 nM; at PKCε [2] (n = 3, read-out: Ki (nM) PKCε), 12.8 nM; at PKCε [2] (setting [4]), under 20 nM. For the same compound, the “activity against atypical PKCζ” value on PKCζ is on record as “almost no activity”.
As to `NC(C(=O)NC1CCCc2ccccc21)[C@H]1CC[C@H](C(=O)Nc2ccncc2)CC1` (stereo partly shown) [Compound 11], at PKCε [1] (read-out: Log IC50 (converted)), the IC50 is 3090 nM.
Turning to `NC(CC(=O)NCC1(c2ccc(Cl)cc2)CC1)[C@H]1CC[C@H](C(=O)Nc2ccncc2)CC1` (relative stereo) [Compound 2, trans-4-[1-Amino-2-[[[1-(4-chlorophenyl)cyclopropyl]methylamino]carbonyl]ethyl]-N-4-pyridinyl-cyclohexylcarboxamide], the IC50 stood at 3240 nM against PKCε [1] and 1690 nM at PKCε [3].
Consider `NC(CNC(=O)C1(c2ccc(F)c(F)c2)CC1)[C@H]1CC[C@H](C(=O)Nc2ccncc2)CC1` (stereo partly shown) [Compound 6], for which the IC50 on PKCε [1] (read-out: IC50) worked out at 52.2 nM.
In the case of `NC(CNC(=O)C1CCc2cc(Cl)ccc21)[C@H]1CC[C@H](C(=O)Nc2ccncc2)CC1` (stereo partly shown) [Compound 8], on PKCε [1] (read-out: Log IC50 (converted)), the IC50 was 359 nM.
Same read-out and setting: the same measure for `NC(C(=O)NC1COc2ccccc21)[C@H]1CC[C@H](C(=O)Nc2ccncc2)CC1` (stereo partly shown) [Compound 10]: 2020 nM.
Still for that read-out and setting: then `NC(CNC(=O)C1(c2ccc(F)cc2)CC1)[C@H]1CC[C@H](C(=O)Nc2ccncc2)CC1` (stereo partly shown) [Compound 3], with 146 nM.
On to `NC(C(=O)NCc1ccc(F)cc1)[C@H]1CC[C@H](C(=O)Nc2ccncc2)CC1` (stereo partly shown) [Compound 12], for which the IC50 on PKCε [1] (read-out: Log IC50 (converted)) was 2370 nM.
Same read-out and setting: then `NC(CNC(=O)C1(c2ccc(F)cc2Cl)CCCC1)[C@H]1CC[C@H](C(=O)Nc2ccncc2)CC1` (stereo partly shown) [Compound 4], with 121 nM.
